tested on: HIV strain r13020; test: Antiviral spectrum, protease inhibitor resistant strain; assay type: cell-based; conditions: Human immunodeficiency virus 1, strain r13020; L10I, K20R, M36I, 154V, A71V, V82T, 184V
Method: (§1) HIV- or mock-infected MT4 cells were incubated for five days in the presence of various concentrations of the inhibitor. At the end of the incubation period, all HIV-infected cells have been killed by the replicating virus in the control cultures in the absence of any inhibitor. Cell viability is measured by measuring the concentration of MTT, a yellow, water soluble tetrazolium dye that is converted to a purple, water insoluble formazan in the mitochondria of living cells only. Upon solubilization of the resulting formazan crystals with isopropanol, the absorbance of the solution is monitored at 540 nm. The values correlate directly to the number of living cells remaining in the culture at the completion of the five day incubation. The inhibitory activity of the compound was monitored on the virus-infected cells and was expressed as IC50 and IC90. These values represent the amount of the compound required to protect 50% and 90%, respectively, of the cells from the cytopathogenic effect of the virus. The toxicity of the compound was measured on the mock-infected cells and was expressed as CC50, which represents the concentration of compound required to inhibit the growth of the cells by 50%. The select index (SI) (ratio CC50/IC50) is an indication of the selectivity of the anti-HIV activity of the inhibitor.
(§2) Because of the increasing emergence of drug resistant HIV strains, compound 13 and compound 14 were tested for its potency against HIV strains harbouring several mutations. These mutations are associated with resistance to protease inhibitors and result in viruses that show various degrees of phenotypic cross-resistance to five of the currently commercially available drugs (Saquinavir, Ritonavir, Nelfinavir, Indinavir and Amprenavir).

SMILES | IC50 [nM]
CC(C)CN(C[C@@H](O)[C@H](Cc1ccccc1)NC(=O)O[C@H]1CCOC1)S(=O)(=O)c1ccc(N)cc1 [AMP, Amprenavir] | 107

tested on: HIV strain r13022; test: as above; assay type: cell-based; conditions: Human immunodeficiency virus 1, strain r13022; K20R, M36I, M46I/M, 154V, L63P, A71V/I, V82T, L90M
Method: as §1, §2

SMILES | IC50 [nM]
CC(C)CN(C[C@@H](O)[C@H](Cc1ccccc1)NC(=O)O[C@H]1CCOC1)S(=O)(=O)c1ccc(N)cc1 [AMP, Amprenavir] | 181

tested on: HIV strain r13025; test: as above; assay type: cell-based; conditions: Human immunodeficiency virus 1, strain r13025; L10I, M46I, L63P, A71V, I84V
Method: as §1, §2

SMILES | IC50 [nM]
CC(C)CN(C[C@@H](O)[C@H](Cc1ccccc1)NC(=O)O[C@H]1CCOC1)S(=O)(=O)c1ccc(N)cc1 [AMP, Amprenavir] | 661

tested on: HIV strain r13034; test: as above; assay type: cell-based; conditions: Human immunodeficiency virus 1, strain r13034; L10I, M36I, I54V, L63P, A71V, I84V
Method: as §1, §2

SMILES | IC50 [nM]
CC(C)CN(C[C@@H](O)[C@H](Cc1ccccc1)NC(=O)O[C@H]1CCOC1)S(=O)(=O)c1ccc(N)cc1 [AMP, Amprenavir] | 677

tested on: HIV strain r13027; test: as above; assay type: cell-based; conditions: Human immunodeficiency virus 1, strain r13027; L10M/I, K20R, M36I, L63P, A71V, G73S, V77I, I84V, L90M
Method: as §1, §2

SMILES | IC50 [nM]
CC(C)CN(C[C@@H](O)[C@H](Cc1ccccc1)NC(=O)O[C@H]1CCOC1)S(=O)(=O)c1ccc(N)cc1 [AMP, Amprenavir] | 645

tested on: HIV strain r13037; test: as above; assay type: cell-based; conditions: Human immunodeficiency virus 1, strain r13037; L10I, M46I, I54V, L63P, A71T, V77I, V82A, L90M
Method: as §1, §2

SMILES | IC50 [nM]
CC(C)CN(C[C@@H](O)[C@H](Cc1ccccc1)NC(=O)O[C@H]1CCOC1)S(=O)(=O)c1ccc(N)cc1 [AMP, Amprenavir] | 165

tested on: HIV strain r13030; test: as above; assay type: cell-based; conditions: Human immunodeficiency virus 1, strain r13030; L10V/I, M36I, I54V, L63P, A71V, V82T, L90M
Method: as §1, §2

SMILES | IC50 [nM]
CC(C)CN(C[C@@H](O)[C@H](Cc1ccccc1)NC(=O)O[C@H]1CCOC1)S(=O)(=O)c1ccc(N)cc1 [AMP, Amprenavir] | 49.1

tested on: HIV strain r13024; test: as above; assay type: cell-based; conditions: Human immunodeficiency virus 1, strain r13024; L10I, M36I, L63P, A71V, G73S, I84V, L90M
Method: as §1, §2

SMILES | IC50 [nM]
CC(C)CN(C[C@@H](O)[C@H](Cc1ccccc1)NC(=O)O[C@H]1CCOC1)S(=O)(=O)c1ccc(N)cc1 [AMP, Amprenavir] | 180

tested on: HIV strain r13026; test: as above; assay type: cell-based; conditions: Human immunodeficiency virus 1, strain r13026; L10I, M46I, I54V, L63P, A71V, V82T, I84V
Method: as §1, §2

SMILES | IC50 [nM]
CC(C)CN(C[C@@H](O)[C@H](Cc1ccccc1)NC(=O)O[C@H]1CCOC1)S(=O)(=O)c1ccc(N)cc1 [AMP, Amprenavir] | 136

tested on: HIV strain r13036; test: as above; assay type: cell-based; conditions: Human immunodeficiency virus 1, strain r13036; L10I, L63P, A71V, G73S, L90M
Method: as §1, §2

SMILES | IC50 [nM]
CC(C)CN(C[C@@H](O)[C@H](Cc1ccccc1)NC(=O)O[C@H]1CCOC1)S(=O)(=O)c1ccc(N)cc1 [AMP, Amprenavir] | 445

tested on: HIV strain r13031; test: as above; assay type: cell-based; conditions: Human immunodeficiency virus 1, strain r13031; G48V, I54V, V77I, V82A, L90M/L
Method: as §1, §2

SMILES | IC50 [nM]
CC(C)CN(C[C@@H](O)[C@H](Cc1ccccc1)NC(=O)O[C@H]1CCOC1)S(=O)(=O)c1ccc(N)cc1 [AMP, Amprenavir] | 34.1

tested on: HIV strain r13021; test: as above; assay type: cell-based; conditions: Human immunodeficiency virus 1, strain r13021; L10I, K20R, L24I, M36I, I54V, L63P, A71V, V82T, I84V
Method: as §1, §2

SMILES | IC50 [nM]
CC(C)CN(C[C@@H](O)[C@H](Cc1ccccc1)NC(=O)O[C@H]1CCOC1)S(=O)(=O)c1ccc(N)cc1 [AMP, Amprenavir] | 212

tested on: HIV strain r13029; test: as above; assay type: cell-based; conditions: Human immunodeficiency virus 1, strain r13029; L10I/L, M36I, M46L, L63P, A71V, I84V, N88D, L90M
Method: as §1, §2

SMILES | IC50 [nM]
CC(C)CN(C[C@@H](O)[C@H](Cc1ccccc1)NC(=O)O[C@H]1CCOC1)S(=O)(=O)c1ccc(N)cc1 [AMP, Amprenavir] | 214

tested on: HIV strain r13023; test: as above; assay type: cell-based; conditions: Human immunodeficiency virus 1, strain r13023; L10I, M36I/M, I54V/I, L63P, A71V, G73S, I84V, L90M
Method: as §1, §2

SMILES | IC50 [nM]
CC(C)CN(C[C@@H](O)[C@H](Cc1ccccc1)NC(=O)O[C@H]1CCOC1)S(=O)(=O)c1ccc(N)cc1 [AMP, Amprenavir] | 217

tested on: HIV strain r13035; test: as above; assay type: cell-based; conditions: Human immunodeficiency virus 1, strain r13035; D30N, L63P, V77I, N88D
Method: as §1, §2

SMILES | IC50 [nM]
CC(C)CN(C[C@@H](O)[C@H](Cc1ccccc1)NC(=O)O[C@H]1CCOC1)S(=O)(=O)c1ccc(N)cc1 [AMP, Amprenavir] | 10.5

tested on: HIV strain r13033; test: as above; assay type: cell-based; conditions: Human immunodeficiency virus 1, strain r13033; L10I, M46L, I54V, L63P, A71V, V82A, L90M
Method: as §1, §2

SMILES | IC50 [nM]
CC(C)CN(C[C@@H](O)[C@H](Cc1ccccc1)NC(=O)O[C@H]1CCOC1)S(=O)(=O)c1ccc(N)cc1 [AMP, Amprenavir] | 194

tested on: HIV-1 strain LAI; test: Cellular anti-HIV assay in MT4 cells (MTT); assay type: cell-based; conditions: Human immunodeficiency virus 1, MT4, strain LAI; read-out: IC50
Method: as §1

SMILES | IC50 [nM]
CC(C)CN(C[C@@H](O)[C@H](Cc1ccccc1)NC(=O)O[C@H]1CCOC1)S(=O)(=O)c1ccc(N)cc1 [AMP, Amprenavir] | 35.9

Source: patent US7157495B2, “Hexahydrofuro[2,3-B]furan-3-YL-N-{3-[(1,3-benzodioxol-5-ylsulfonyl)(isobutyl)amino]-1-benzyl-2-hydroxypropyl}carbamate as retroviral protease inhibitor” (Tibotec Pharmaceuticals, Ltd., priority 1999, dated 2007)
